Assay results reported in patent EP4640240A1, “PEPTIDE-BASED RADIOPHARMACEUTICALS FOR NON-INVASIVE IMAGING OF THE FUNCTIONAL LIVER RESERVE” (Medizinische Universität Innsbruck, priority 2024, dated 2025).
Where two headings read alike, the source gives them in different places.

How the values were obtained:
[1] = Biodistribution studies in BALB/c mice; type: in vivo; details: for tissue uptake at 10 min / tissue uptake at 0.5 h / tissue uptake at 1 h: female, mouse, iv, total radioactivity, healthy BALB/c mice, 0.1 nmol i.v.; for tissue uptake at 10 min: 10 min p.i.; for tissue uptake at 0.5 h: 30 min p.i.; for tissue uptake at 1 h: 60 min p.i.
Experimental: For biodistribution studies 6-week-old female BALB/c mice (n=3) were injected with 0.1 nmol (100 µL, approx. 1 MBq) of labelled compound via the lateral tail vein and sacrificed after 10, 30, or 60 min by cervical dislocation. The mice were dissected, blood and organs (spleen, pancreas, stomach, intestine, liver, kidney, heart, lung, muscle and bone) were weighed and their activity measured in a γ-counter. For blocking experiments, mice were co-injected with 27.7 µmοl N-acetylgalactose.

[2] = Protein binding in human serum (MicroSpin G-50 columns); type: in vitro ADME; details: fresh human serum, 37 °C, n=3
Experimental: Protein binding was determined for different time points (2 min, 30 min, 60 min, 120 min) in triplicates using Sephadex MicroSpin G-50 columns (GE-Healthcare, Chicago, Illinois, USA). The columns were spun initially at 20,000 rcf for 1 min to remove the storage buffer. Then approx. 5 MBq of radioligand was added to 1 mL of fresh human serum and incubated at 37 °C. At each given timepoint 25 µL of the mixture was loaded on to the column, which was then spun at 20,000 rcf for 1 min. The activity content on the column (free radioligand) and in the filtrate (protein bound fraction) was quantified in a γ-counter.

[3] = Partition coefficient logD (n-octanol/PBS); type: physicochemical; details: n=6
Experimental: For determination of logarithmic partition coefficients (logD) n-Octanol (500 µL) and PBS (500 µL) were pipetted into eight 1.5 mL Protein Low-Bind Eppendorf tubes followed by addition of 300 kBq of labelled compound. The vials were vortexed for 5 min at 1,500 1/min and then centrifuged for 5 min at 20,000 rcf (Eppendorf Centrifuge 5424). Aliquots of 100 µL were taken out of each phase and the amount of activity was quantified in a γ-counter (Perkin Elmer 2480 Wizard2 3"; Waltham, Massachusetts, USA).

[4] = Stability in human blood serum (radio-HPLC); type: in vitro ADME; details: 37 °C
Experimental: Ligand stability in human blood serum (n = 2) and PBS (pH = 6.5) (n = 1) was determined for different time points (2 min, 30 min, 60 min, 120 min). Therefore, approx. 5 MBq of radioligand was added to 1 mL of fresh human serum at 37 °C or PBS at rt. At each given time point 100 µL of the mixture were transferred to a 1.5 mL Eppendorf tube containing 100 µL of acetonitrile. The vial was vortexed and centrifuged for 2 min at 14,000 1/min before 100 µL of the supernatant were diluted with 200 µL of water and injected into analytical radio-HPLC. The PBS solution was directly injected into the radio-HPLC. Ligand stability was determined by integrating the areas of the signals in the radio chromatogram in relation to the signal of the intact ligand.

[5] = BALB/c mice, comparison with ^99mTc-GSA
[6] = Blood, read-out: Biodistribution data, Blood
[7] = Femur, read-out: Biodistribution data, Femur
[8] = Heart, read-out: Biodistribution data, Heart
[9] = Intestine, read-out: Biodistribution data, Intestine
[10] = Kidneys, read-out: Biodistribution data, Kidneys
[11] = Liver, read-out: Biodistribution data, Liver
[12] = Lung, read-out: Biodistribution data, Lung
[13] = Muscle, read-out: Biodistribution data, Muscle
[14] = Pancreas, read-out: Biodistribution data, Pancreas
[15] = Spleen, read-out: Biodistribution data, Spleen
[16] = Stomach, read-out: Biodistribution data, Stomach

NC(=O)CNC(=O)CNC(=O)[C@H](CCCCNC(=O)CCCCc1cn(C2O[C@H](CO)[C@H](O)[C@H](O)[C@H]2O)nn1)NC(=O)CNC(=O)CNC(=O)[C@H](CCCCNC(=O)CCCCc1cn(C2O[C@H](CO)[C@H](O)[C@H](O)[C@H]2O)nn1)NC(=O)CNC(=O)CNC(=O)[C@H](CCCCNC(=O)CCCCc1cn(C2O[C@H](CO)[C@H](O)[C@H](O)[C@H]2O)nn1)NC(=O)CNC(=O)CNC(=O)[C@H](CCCCNC(=O)CCCCc1cn(C2O[C@H](CO)[C@H](O)[C@H](O)[C@H]2O)nn1)NC(=O)CNC(=O)CNC(=O)[C@H](CCCCNC(=O)CCCCc1cn(C2O[C@H](CO)[C@H](O)[C@H](O)[C@H]2O)nn1)NC(=O)CNC(=O)CNC(=O)[C@H](CCCCNC(=O)CCCCc1cn(C2O[C@H](CO)[C@H](O)[C@H](O)[C@H]2O)nn1)NC(=O)CNC(=O)CNC(=O)[C@H](CCCCNC(=O)CCCCc1cn(C2O[C@H](CO)[C@H](O)[C@H](O)[C@H]2O)nn1)NC(=O)CNC(=O)CNC(=O)[C@H](CCCCNC(=O)CCCCc1cn(C2O[C@H](CO)[C@H](O)[C@H](O)[C@H]2O)nn1)NC(=O)CNC(=O)CNC(=O)[C@H](CCCCNC(=O)CCCCc1cn(C2O[C@H](CO)[C@H](O)[C@H](O)[C@H]2O)nn1)NC(=O)CCCNC(=O)CC[C@H](C(=O)O)N1CCN(CC(=O)O)CCN(CC(=O)O)CC1 (some centres unmarked) [[68Ga]Ga-NonaLysan, metal not drawn]
activity accumulation in the liver (in words) [1, 5]: outperforms the accumulation in the liver found for the gold standard ^99mTc-GSA | activity concentration in the intestine (in words) [1, 5]: activity concentration is lower as found for ^99mTc-GSA | tissue uptake at 10 min [1, 6]: 0.43 ± 0.03 %ID/g | tissue uptake at 0.5 h [1, 6]: 0.15 ± 0.04 %ID/g | tissue uptake at 1 h [1, 6]: 0.22 ± 0.05 %ID/g | tissue uptake at 10 min [1, 7]: 0.26 ± 0.02 %ID/g | tissue uptake at 0.5 h [1, 7]: 0.26 ± 0.08 %ID/g | tissue uptake at 1 h [1, 7]: 0.23 ± 0.01 %ID/g | tissue uptake at 10 min [1, 8]: 0.44 ± 0.04 %ID/g | tissue uptake at 0.5 h [1, 8]: 0.44 ± 0.04 %ID/g | tissue uptake at 1 h [1, 8]: 0.52 ± 0.07 %ID/g | tissue uptake at 10 min [1, 9]: 0.77 ± 0.17 %ID/g | tissue uptake at 0.5 h [1, 9]: 5.61 ± 0.22 %ID/g | tissue uptake at 1 h [1, 9]: 7.91 ± 0.49 %ID/g | tissue uptake at 10 min [1, 10]: 1.16 ± 0.12 %ID/g | tissue uptake at 0.5 h [1, 10]: 0.83 ± 0.03 %ID/g | tissue uptake at 1 h [1, 10]: 0.99 ± 0.15 %ID/g | tissue uptake at 10 min [1, 11]: 71.23 ± 0.43 %ID/g | tissue uptake at 0.5 h [1, 11]: 79.6 ± 7.96 %ID/g | tissue uptake at 1 h [1, 11]: 69.6 ± 0.98 %ID/g | tissue uptake at 10 min [1, 12]: 0.85 ± 0.1 %ID/g | tissue uptake at 0.5 h [1, 12]: 0.7 ± 0.08 %ID/g | tissue uptake at 1 h [1, 12]: 0.92 ± 0.1 %ID/g | tissue uptake at 10 min [1, 13]: 0.61 ± 0.07 %ID/g | tissue uptake at 0.5 h [1, 13]: 0.66 ± 0.03 %ID/g | tissue uptake at 1 h [1, 13]: 0.59 ± 0.09 %ID/g | tissue uptake at 10 min [1, 14]: 0.75 ± 0.07 %ID/g | tissue uptake at 0.5 h [1, 14]: 0.91 ± 0.05 %ID/g | tissue uptake at 1 h [1, 14]: 1.16 ± 0.19 %ID/g | tissue uptake at 10 min [1, 15]: 0.57 ± 0.16 %ID/g | tissue uptake at 0.5 h [1, 15]: 0.17 ± 0.03 %ID/g | tissue uptake at 1 h [1, 15]: 0.49 ± 0.03 %ID/g | tissue uptake at 10 min [1, 16]: 0.73 ± 0.16 %ID/g | tissue uptake at 0.5 h [1, 16]: 1.15 ± 0.44 %ID/g | tissue uptake at 1 h [1, 16]: 1.78 ± 0.98 %ID/g | fraction unbound ([2]; 2 min): 0.847 | fraction unbound ([2]; 30 min): 0.717 | fraction unbound ([2]; 60 min): 0.737 | fraction unbound ([2]; 120 min): 0.785 | logD [3]: -4.06 ± 0.09 | remaining at 2 min ([4]; 2 min, n=2, read-out: Serum stability (% of intact ligand)): 99.5 ± 0.1% | remaining at 0.5 h ([4]; 30 min, n=2, read-out: Serum stability (% of intact ligand)): 99.5 ± 0.1% | Serum stability (% of intact ligand) ([4]; 60 min, n=2): 99.5 ± 0.1% | remaining at 2 h ([4]; 120 min, n=2, read-out: Serum stability (% of intact ligand)): 99.6%
